According to patent EP0244803B1, “Novel dopamine beta hydroxylase inhibitors” (MERRELL DOW PHARMACEUTICALS INC., priority 1986, dated 1987):

Experiments:
DBH = assay: In vivo DBH inhibition: heart dopamine level in spontaneously hypertensive rats; conditions: Treated SHR's, 50 mg/kg, IP, 3 hours post dose; mean ± standard deviation; micrograms of dopamine per gram of heart tissue; *** p<.001 vs control
Method: In this test spontaneously hypertensive rats are dosed (i.p.) at 50 mg per kilogram of body weight and sacrificed three hours later.

[1] = biological target: T1, dopamine beta-hydroxylase (DBH) (Bos taurus, UniProt P15101); assay: In vitro DBH inhibition: conversion of tyramine to octopamine, oxygen uptake measured with a polarographic electrode; type: biochemical; conditions: pH 5, 37°C preferred; concentration at which DBH activity was halved; read-out: IC₅₀
T1 sequence (P15101 33-610): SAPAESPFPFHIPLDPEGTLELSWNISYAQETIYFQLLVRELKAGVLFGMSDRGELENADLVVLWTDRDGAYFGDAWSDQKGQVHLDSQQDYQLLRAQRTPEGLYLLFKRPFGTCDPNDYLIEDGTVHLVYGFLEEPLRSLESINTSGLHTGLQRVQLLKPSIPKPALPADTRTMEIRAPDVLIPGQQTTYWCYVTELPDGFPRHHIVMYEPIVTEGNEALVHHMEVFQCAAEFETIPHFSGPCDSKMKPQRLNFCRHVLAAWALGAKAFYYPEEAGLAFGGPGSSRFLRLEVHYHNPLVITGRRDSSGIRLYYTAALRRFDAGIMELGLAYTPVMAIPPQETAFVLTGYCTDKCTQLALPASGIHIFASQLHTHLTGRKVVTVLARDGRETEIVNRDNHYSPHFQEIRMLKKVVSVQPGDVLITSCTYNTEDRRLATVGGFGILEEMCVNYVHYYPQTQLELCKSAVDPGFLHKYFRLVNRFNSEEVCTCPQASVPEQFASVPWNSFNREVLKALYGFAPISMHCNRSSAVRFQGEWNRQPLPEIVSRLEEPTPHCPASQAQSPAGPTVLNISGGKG
Method: The DBH inhibitory properties of the compounds of this invention can readily be determined in vitro by standard and well known procedures for assaying conversion of tyramine to octopamine in the presence of dopamine beta-hydroxylase. Enzymatic oxygenation by DBH is determined in aqueous solution in the presence of molecular oxygen, an electron donor such as ascorbate, and the necessary cofactors for the enzyme at pH of 5 and a temperature of 20°-40°C, preferably 37°C. The test compound is added at the desired concentration, and the system is incubated.

[2] = system: spontaneously hypertensive rats (SHR's); assay: Antihypertensive effect: blood pressure monitored continuously in SHR's after ip administration; type: in vivo; conditions: 50 mg/kg; for Max Change MBP: mean difference ± standard deviation; for Max Change MBP (percent, in parentheses): percent change printed in parentheses
Method: The test compound is administered intraperitoneally (ip) to rats and the blood pressure monitored continuously.

Compound	Heart DA (DBH)	IC50 [1] [µM]	Max Change MBP [2] [mmHg]	Max Change MBP (percent, in parentheses) [2] [%]
1-[(Fluoro-2-thienyl)methyl]-1,3-dihydro-2H-imidazole-2-thione [Compound 6]	Treated .045±.005*** µg/g	2.9	-42±17	25
S=c1[nH]ccn1Cc1cccs1 [Compound 1, 1,3-Dihydro-(2-thienylmethyl)-2H-imidazole-2-thione]	Treated .066±.005*** µg/g	–	-30±21	18
S=c1[nH]ccn1Cc1ccsc1 [Compound 2, 1,3-Dihydro-1-(3-thienylmethyl)-2H-imidazole-2-thione]	Treated .066±.012*** µg/g	–	-21±27	12
S=c1[nH]ccn1Cc1ccco1 [Compound 3, 1-(2-Furanylmethyl)-1,3-dihydro-2H-imidazole-2-thione]	Treated .079±.004*** µg/g	–	–	–
S=c1[nH]ccn1Cc1ccc(Cl)s1 [Compound 4, 1-[(5-Chloro-2-thienyl)methyl]-1,3-dihydro-2H-imidazole-2-thione]	Treated .046±.009*** µg/g	–	-22±5	13
Cc1ccc(Cn2cc[nH]c2=S)s1 [Compound 5, 1,3-Dihydro-1-[(5-methyl-2-thienyl)methyl]-2H-imidazole-2-thione]	Treated .048±.004*** µg/g	6	-37±19	10
